The values below come from US4225619A, “Substituted fluoracylresorcinols” (Boehringer Ingelheim GmBH, priority 1976, dated 1980).

Data set [1] in a line: Acute toxicity in mice (LD50). The note with it: mouse, in vivo, death within 14 days. Here is the method:
The acute toxicity was determined with mice. The LD50, the dose leading to the death of 50% of the animals within 14 days, was calculated.

In data set [2] the test system is Staphylococcus aureus SG 511. Description: Serial dilution test. In kind it is cell-based. The note with it: Staphylococcus aureus, SG511, 18-20 hours at 37° C., read-out: MIC, S.D.T., Staphylococcus aureus SG 511. Here is the method:
(§1) The inhibitory effect on bacteria and fungi was examined by the serial dilution test and the agar diffusion test (hole-test). As bacteria were used: Staphylococcus aureus SG 511, Streptococcus Aronson, Streptococcus pyogenes At CC 86 68; as fungi: Candida albicans AT CC 10231, Trichophyton mentagrophytes AT CC 9129 and Aspergillus niger.
1. Meat extract broth: for St. aureus SG 511
(§2) The age of the primary cultures is 24 hours for bacteria and 14 days for fungi. The standardization of the suspension of microorganisms is effected using a photometer according to Eppendorf (test tube .phi.14 mm, filter 546 nm) and a suspension for comparison consisting of barium sulfate, this suspension being created by adition of 3.0 ml of 1% barium chloride solution to 97 ml of 1% sulfuric acid. After the standardization the bacteria were further diluted to a concentration of 1:1000 by means of sodium chloride solution, the fungi were used in an undiluted state.
(§3) 40 mgm of the substance were put into a 10 ml measuring flask and filled up to the mark with the solvent (corresponds to a dilution of 1:250=4000 μg/ml). The further dilution series was standardized with distilled water or the respective solvent and the following substance concentrations were prepared: 1000; 250; 62.5 μg/ml.
(§4) The tubes were filled with 4.9 ml of the corresponding liquid nutrient medium. Then 0.1 ml of the substance dilution prepared above was added to each tube, so that the mentioned final concentrations were present. Finally each tube was inoculated with 0.1 ml of the standardized suspension of microorganisms. Control tests merely using the solvent are to be carried out simultaneously.
(§5) Bacteria were incubated at 37° C. for 18-20 hours and fungi at 27° C. for 7 days.
(§6) The measurement is carried out macroscopically defining the minimal inhibitory concentration (the lowest still microbiostatically effective concentration).

The next data set concerns skin. Description: Compatibility on the skin under occlusion. In kind it is in vivo. The note with it: cream containing 10%; over 24 hours under occlusion.
For data set [3], the system named is Streptococcus pyogenes At CC 86 68. Description: Serial dilution test. In kind it is cell-based. The note with it: Streptococcus pyogenes, ATCC8668, 18-20 hours at 37° C., read-out: MIC, S.D.T., Streptococcus pyogenes. Here is the method: as §1
(§7) 2. Glucose broth: for Sc. Aronson and St. pyogenes Recipe see meat extract broth. After sterilization 1 weight percent of glucose is added as a sterile 50% solution.
as §2, §3, §4, §5, §6

The test system of data set [4] is Streptococcus Aronson. The experiment in a line: Serial dilution test. In kind it is cell-based. The note with it: Streptococcus, 18-20 hours at 37° C., read-out: MIC, S.D.T., Streptococcus Aronson. Here is the method: as §1, §7, §2, §3, §4, §5, §6
The subject of data set [5] is Streptococcus pyogenes At CC 86 68. Description: Agar diffusion test (hole-test). It is filed as cell-based. The note with it: ATCC8668, 18-20 hours at 37° C., read-out: MIC, A.D.T., Streptococcus pyogenes. Here is the method: as §1
(§8) 2. Glucose agar: for Sc. Aronson and St. pyogenes Recipe see meat extract agar. After sterilization 1 weight percent of glucose is added as a sterile 50% solution.
(§9) The age of the primary cultures is 24 hours for bacteria and 14 days for fungi. The standardization of the suspension of microorganisms is effected using a photometer according to Eppendorf (test tube .phi.14 mm, filter 546 nm) and a suspension for comparison consisting of barium sulfate, this suspension being created by addition of 3.0 ml of 1% barium chloride solution to 97 ml of 1% sulfuric acid. After the standardization St. aureus SG 511 was diluted 1:1000 and Sc. pyogenes and Aronson 1:100 by means of sodium chloride solution. The fungi were used in an undiluted state.
(§10) 40 mgm of the substance were put into a 10 ml measuring flask and filled up to the mark with the solvent (corresponds to a dilution of 1:250=4000 μg/ml).
(§11) The dilutions to the concentrations under test were effected with distilled water or the respective solvent.
(§12) 19 ml of the nutrient medium were filled into sterile Petri dishes of a diameter of 8 cm and dried. Subsequently the agar plates were charged with 4 ml of seed agar. 100 ml of seed agar contain 1.25 ml of the suspension of microorganisms, an agar plate thus containing 0.05 ml of the suspension of microorganisms. After solidification of the agar, 5 holes of a diameter of 5 mm were punched into the plates and filled with 0.05 ml of the correspondingly concentrated substance solution.
(§13) Control tests merely using the solvent are to be carried out simultaneously.
as §5
(§14) The diameter of the area of inhibition in mm was measured after having deducted the diameter of the hole.

The test system of data set [6] is Streptococcus Aronson. Description: Agar diffusion test (hole-test). The following applies: 18-20 hours at 37° C., read-out: MIC, A.D.T., Streptococcus Aronson. It is filed as cell-based. Here is the method:
as §1, §8, §9, §10, §11, §12, §13, §5, §14

A further data set has as its system HeLa-cell culture. Description: Inhibition of HeLa cell cultures. It is filed as cell-based. The following applies: Homo sapiens, 72 h, 37° C. for 3 days, 5% carbon dioxide. As for the experimental part:
Measurement of the inhibition of cell cultures
HeLa-cell culture was treated with trypsin and adjusted to a cell number of 150,000 cells/ml of fresh medium. The substance was always dissolved in the same quantity of dimethyl sulfoxide and then further diluted with growth medium. 0.1 ml of the substance-dilutions were added to each well of microtiter plates and then 0.2 ml of cell suspension were added (4 wells per dilution). Several growth controls containing 0.1 ml of growth medium instead of 0.1 ml of substance dilution were put up. After careful mixing, the cultures were incubated at 37° C. for 3 days in a 5% carbon dioxide atmosphere. The reading was effected in comparison with these controls. The results were given as the percentage of the deficiency and degeneration compared to the growth control. […] The statements are referred to μg of substance per ml of total medium.

For a further data set, the system named is Corynebacterium acnes. Description: Serial dilution test for Corynebacterium acnes. In kind it is cell-based. The note with it: Cutibacterium acnes, 37° C. for 48 hours, read-out: MIC, S.D.T., Corynebacterium acnes. Here is the method: Serial dilution test for Corynebacterium acnes and Pityrosporum ovale Nutrient medium
For Corynebacterium acnes: thioglycolate-broth for Pityrosporum ovale: Littmann's broth, 5 ml per tube.
Suspension of microorganisms in 0.9% sodium chloride solution, standardized using a photometer according to Eppendorf by means of a suspension for comparison consisting of barium sulfate, for Corynebacterium acnes in a dilution of 1:100, for Pityrosporum ovale in an undiluted state. 0.1 ml of the suspensions was used per test tube. Dimethyl sulfoxide served as a solvent for the substances.
The suspension with Corynebacteria acnes was incubated at 37° C. for 48 hours, the suspension of Pityrosporum ovale at 27° C. for 7 days. The reading was effected by macroscopic evaluation of the growth of microorganisms and registration of the minimal inhibitory concentration.

Data set [7] has as its system Staphylococcus aureus SG 511. Description: Agar diffusion test (hole-test). In kind it is cell-based. The note with it: SG511, 18-20 hours at 37° C., read-out: MIC, A.D.T., Staphylococcus aureus SG 511. Here is the method: as §1
1. Meat extract agar: for St. aureus SG 511
as §9, §10, §11, §12, §13, §5, §14

The test system of a further data set is humans. The following applies: in some cases; cited from earlier work.
Where [8] appears, read: ip, read-out: LD50 in the mouse, i.p.
Where [9] appears, read: po, read-out: LD50 in the mouse, p.o.
Setting [10] is: sc, read-out: LD50 in the mouse, s.c.

Converted amounts (≈) assume the structure as drawn. Read-outs that look alike come from different tables or passages of the source. A value given as a limit tells only on which side of the number the result lay.

On to `CCCCCCc1cc(C(=O)C(F)(F)F)c(O)cc1O` [Compound E, 2,4-Dihydroxy-5-n-hexyl-trifluoroacetophenone], for which the LD50 at 336 h in data set [1] (setting [8]) was 82 mg/kg; in data set [1] (setting [9]), greater than 3200 mg/kg; in data set [1] (setting [10]), greater than 4000 mg/kg. The MIC in [2] is 1.25 µg/mL (≈ 4.31 µM); in data set [3], 0.31 µg/mL (≈ 1.07 µM); in the data set with Streptococcus Aronson [4], 0.31 µg/mL (≈ 1.07 µM); in data set [5], no more than 15.6 µg/mL; in the data set with Streptococcus Aronson [6], no more than 15.6 µg/mL; in the data set on Corynebacterium acnes, 0.08 µg/mL (≈ 0.276 µM). Also, the MIC in data set [7] is no more than 15.6 µg/mL. The “compatibility on the skin” value with skin is “tolerated without irritation”. For the same compound, the IC50 in the data set on HeLa-cell culture (read-out: ED50, HeLa cell culture) was 5.81 µg/mL (≈ 20 µM). In addition, in the data set on HeLa-cell culture (read-out: Minimal inhibitory concentration, HeLa cell culture), the minimal effective concentration was determined as 0.78 µg/mL.
In the case of `CC(C)c1cc(C(=O)C(F)(F)F)c(O)c(Cc2c(O)c(C(=O)C(F)(F)F)cc(C(C)C)c2O)c1O` [Compound Q, Methylene-bis-(2,6-dihydroxy-3-isopropyl-5-trifluoro-acetyl)-benzene], the figures for the LD50 at 336 h in data set [1] (setting [8]), in data set [1] (setting [9]) and in data set [1] (setting [10]) were 400 mg/kg, greater than 4000 mg/kg and greater than 2 mg/kg, respectively. Further, the MIC was 0.08 µg/mL (≈ 0.157 µM) in [2]; 0.001 µg/mL (≈ 0.00197 µM) in [3]; 1.25 µg/mL (≈ 2.46 µM) with Streptococcus Aronson [4]; no more than 15.6 µg/mL in data set [5]; no more than 15.6 µg/mL with Streptococcus Aronson [6]; 0.02 µg/mL (≈ 0.0393 µM) in the data set on Corynebacterium acnes. In addition, the MIC in [7] is no more than 15.6 µg/mL.
As for `CCCCCCc1ccc(O)cc1O` [hexyl-resorcinol], the allergies in humans entry with humans is listed as “in some cases cause allergies in humans”.
